Where two headings read alike, the source gives them in different places.
Key:
HIV/VSV-G virions [1] = details: read-out: Anti-HIV Activity (EC50)
[2] = Toxicity of 4α-(N-phenyl)miliusate in mice; format: in vivo, BALB/c nude mice
Source text: All animal studies are approved and performed according to Animal Care and Use Guidelines of the Animal Ethics Committee at Hong Kong Baptist University and performed following Animal Care and Use guidelines set by NIH (National Institute of Health, USA). BALB/c nude mice, SPF class, male or female, 7-8 weeks old (average body weight 22 g), are purchased from Charles River Laboratories. Before the experiment, the mice are kept for one week of acclimatization to SPF class laboratory conditions. […] Every other day injections at i.p. sites are scheduled for 21 days. Weights of mice are measured twice a week until the end of the experiment.

HIV/VSV-G virions [3] = test: microbe, parasite or virus in culture; details: Human immunodeficiency virus 1, A549, in Homo sapiens, 48 h, read-out: Anti-HIV Activity (EC50)
HIV/VSV-G virions [4] = test: in vitro; details: human
[5] = system: HIV/HA virions (H5N1 HA and NA); test: microbe, parasite or virus in culture; details: Human immunodeficiency virus 1, H5N1, A549, in Homo sapiens, 48 h, read-out: Anti-H5N1 Activity (EC50)
[6] = system: HIV/HA virions (H5N1 HA and NA); test: in vitro; details: human, Selective Index (CC50/IC50), anti-H5N1
[7] = system: HIV/HA virions (H5N1 HA and NA); details: human
[8] = 20 and 40 mg/kg i.p., every other day for 21 days, 10 mice/group

Q: Which results are given for 4α-(N-Phenyl)miliusate?
A: EC50 (HIV/VSV-G virions [1]): 2.7 µM; Health of mice [2, 8]: all mice remained healthy; Weight loss of mice [2, 8]: no weight loss; Toxicity in mice ([2]; doses of 40 mg/kg): no toxicity

Q: Which EC50 (HIV/VSV-G virions [1]) does the source give for 8′,10′-Dihydroxy-miliusate here?
A: 14.4 µM

Q: Which EC50 (HIV/VSV-G virions [1]) does the source give for 10′-Hydroxy-8′-oxo-miliusate here?
A: 4.97 µM

Q: What does the source list for CC(=O)O[C@@H]1CCC(=O)C2(CC(=O)O[C@@H]2/C=C(\C)CCC=C(C)C)C1 (some centres unmarked) [3,4-Dihydro-miliusate]?
A: EC50 (HIV/VSV-G virions [3]): 67 µM; selectivity ratio (HIV/VSV-G virions [4]): 1

Q: Which EC50 [5] does the source give for CO[C@@H]1CC(=O)C2(CC(=O)O[C@@H]2/C=C(\C)CCC=C(C)C)C[C@@H]1O (some centres unmarked) [Miliusane I] here?
A: 0.71 µM

Q: And the selectivity ratio [6]?
A: 9.5

Q: And the “Selective Index (CC50/IC50), anti-H5N1” value [7]?
A: 10
